# US8598339B2, “Withanolide isolated from Physalis longifolia and analogs and methods of use thereof” (University of Kansas, priority 2011, dated 2013)
# Legend:
# [1] = tested on: TT medullary thyroid cancer cells; experiment: MTS cell viability assay, TT; type: cell-based; settings: Table 1, 72-hour treatment
# Method: Human carcinoid cells, NCI-H727 (ATCC, Manassas, Va.), were cultured under standard conditions. Squamous cell carcinoma of head and neck cells, MDA1986 (Myers, et al. (2002) Clin. Cancer Res. 8:293) and JMAR (Swan, et al. (2003) Oral Oncol. 39:648-55); and melanoma cells lines B16F10 (ATCC, Manassas, Va.) and SKMEL28 (CLS, Eppelheim, Germany) were cultured in DMEM medium supplemented with 10% heat-inactivated fetal bovine serum (Sigma-Aldrich, St. Louis, Mo.), 1×MEM-essential amino acid, 1×MEM vitamin, and penicillin/streptomycin (Sigma-Aldrich, St. Louis, Mo.) in a humid environment of 5% CO2 at 37° C. Activity of withanolides against DRO81-1 and TT medullary thyroid cancer cells was also determined.
# Cells were cultured in 96 well plates at a concentration of 1-2×10^4 cells/mL. Cell viability was assessed with the nonradioactive cell proliferation MTS assay using Cell Titer 96AQUEOUS One Solution Reagent (PROMEGA, Madison, Wis.), according to the manufacturer's instruction. After a 72-hour treatment, 20 μL of Cell Titer 96AQUEOUS One Solution Reagent were added to each well and incubated for 3 hours at 37° C. 5% CO2, and formazan absorbance was measured at 490 nm.
# [2] = tested on: DRO81-1 cells; experiment: Annexin V/PI staining and flow cytometry, DRO81-1; type: cell-based; settings: 24-hour exposure
# [3] = tested on: DRO81-1 medullary thyroid cancer cells; experiment: PARP cleavage, DRO81-1; type: cell-based
# [4] = tested on: RET, mTOR, 4E-BP1, P70S6 kinase, akt, pERK in medullary thyroid cancer cells; experiment: Mechanistic pathway protein levels in medullary thyroid cancer cells; type: cell-based; settings: 24 hours; 0.5, 1, 3, and 6 μM
# Method: Additional analysis of X005, X032 and X033 was carried out in medullary thyroid cancer cells. […] Therefore, this analysis indicates the importance of this double bond in the A-ring to anti-cancer activity.
# [5] = In vitro metabolism, human liver microsomes; type: in vitro ADME; settings: 1.0E-06 M
# Method: (§1) The in vitro metabolism of […], as compared to known reference compounds, was analyzed using liver microsomes from human, dog (Beagle), rat (Sprague-Dawley) and mouse (CD-1). […] Results are from two independent tests.
# [6] = In vitro metabolism, dog liver microsomes; type: in vitro ADME, dog (Beagle); settings: 1.0E-06 M
# Method: as §1
# [7] = In vitro metabolism, rat liver microsomes; type: in vitro ADME, rat (Sprague-Dawley); settings: 1.0E-06 M
# Method: as §1
# [8] = tested on: Salmonella typhimurium TA98; experiment: Cytotoxicity in tester strain TA98 without S9; type: cell-based
# [9] = tested on: Salmonella typhimurium TA100; experiment: Cytotoxicity in tester strain TA100 without S9; type: cell-based
# [10] = tested on: Salmonella typhimurium TA1535; experiment: Cytotoxicity in tester strain TA1535 without S9; type: cell-based
# [11] = tested on: MDA-MB-468; experiment: MTS assay, MDA-MB-468; type: cell-based
# Method: (§2) Cell proliferation was analyzed using MTS assay.
# [12] = tested on: HCC1937 (BRCA-1 mutant) cells; experiment: MTS assay, HCC1937; type: cell-based
# Method: as §2
# [13] = tested on: MCF-7; experiment: MTS assay, MCF-7; type: cell-based
# Method: as §2
# [14] = tested on: HMLEC; experiment: MTS assay, HMLEC; type: cell-based; settings: HMLEC (normal)
# Method: as §2
# [15] = tested on: BT20 cells; experiment: Clonogenic assay, BT20; type: cell-based; settings: 1-2 μM; treated 24 hours, cultured two weeks
# [16] = tested on: BT20 cells; experiment: Cell cycle analysis, BT20; type: cell-based; settings: 2 μM; 24-hour treatment
# [17] = tested on: ER+ MCF-7 cells; experiment: Cell cycle analysis, MCF-7; type: cell-based; settings: 1-2 μM; 24-hour treatment
# [18] = tested on: Ames test strain TA98; experiment: Ames test, TA98
# [19] = tested on: Ames test strain TA100; experiment: Ames test, TA100
# [20] = tested on: NCI-H727 cells; experiment: PARP cleavage and caspase 3 activation, NCI-H727; type: cell-based; settings: 1 μM
# Method: In similar analysis with X003, 50% of UMSCC-2 HNSCC cells underwent apoptosis (early and late) at 1 μM, while 90% of cells underwent apoptosis at 3 μM. Apoptosis with 1 μM X003 was confirmed with PARP cleavage and caspase 3 activation in NCI-H727 cells.
# [21] = tested on: hsf1 and client proteins of Hsp90 in Hs766T cells; experiment: Western blot, Hs766T; type: cell-based
# [22] = tested on: Hsp70 and Hsp40 in Hs766T cells; experiment: Heat shock-induced Hsp70 and Hsp40 protein levels, Hs766T; type: cell-based; settings: pretreatment 8 hours; 30-minute heat shock at 42° C.; further 8 hours
# Method: For this analysis, Hs766T cells were incubated with X003 for 8 hours, followed by a 30-minute heat shock at 42° C. The cells were further incubated for 8 hours and Hsp70 and Hsp40 levels were determined.
smiles,measurement,setting,value
CC1=C(CO)C(=O)O[C@@H]([C@@H](C)C2CC[C@H]3[C@@H]4C[C@H]5O[C@]56[C@@H](O)C=CC(=O)[C@]6(CO)[C@H]4CC[C@]23C)C1 (some centres unmarked) [Compound X001],IC50,[1],1910 nM
same,induction of apoptosis,[2]; 5 μM,apoptosis was induced
same,cells gated toward late apoptosis,[2]; 10 μM,65%
same,cleavage of PARP starting at (concentration),[3],500 nM
same,pERK levels,[4],increased at higher concentrations
same,"total and phosphorylated protein levels of RET, mTOR, P706S kinase",[4],down-regulated in a dose-dependent manner
same,Mean % Parent Compound Remaining,[5],27%
same,Mean % Parent Compound Remaining,[6],28%
same,Mean % Parent Compound Remaining,[7],31%
same,Cytotoxicity (% of Control),[8]; 1.0E−04 M,98 % of Control
same,Cytotoxicity (% of Control),[8]; 1.0E−05 M,86 % of Control
same,Cytotoxicity (% of Control),[8]; 1.3E−06 M,89 % of Control
same,Cytotoxicity (% of Control),[8]; 2.5E−05 M,86 % of Control
same,Cytotoxicity (% of Control),[8]; 2.5E−06 M,87 % of Control
same,Cytotoxicity (% of Control),[8]; 5.0E−05 M,85 % of Control
same,Cytotoxicity (% of Control),[8]; 5.0E−06 M,86 % of Control
same,Cytotoxicity (% of Control),[8]; 6.3E−07 M,95 % of Control
same,Cytotoxicity (% of Control),[9]; 1.0E−04 M,107 % of Control
same,Cytotoxicity (% of Control),[9]; 1.0E−05 M,101 % of Control
same,Cytotoxicity (% of Control),[9]; 1.3E−06 M,96 % of Control
same,Cytotoxicity (% of Control),[9]; 2.5E−05 M,93 % of Control
same,Cytotoxicity (% of Control),[9]; 2.5E−06 M,101 % of Control
same,Cytotoxicity (% of Control),[9]; 5.0E−05 M,101 % of Control
same,Cytotoxicity (% of Control),[9]; 5.0E−06 M,103 % of Control
same,Cytotoxicity (% of Control),[9]; 6.3E−07 M,99 % of Control
same,Cytotoxicity (% of Control),[10]; 1.0E−04 M,111 % of Control
same,Cytotoxicity (% of Control),[10]; 1.0E−05 M,97 % of Control
same,Cytotoxicity (% of Control),[10]; 1.3E−06 M,99 % of Control
same,Cytotoxicity (% of Control),[10]; 2.5E−05 M,100 % of Control
same,Cytotoxicity (% of Control),[10]; 2.5E−06 M,97 % of Control
same,Cytotoxicity (% of Control),[10]; 5.0E−05 M,109 % of Control
same,Cytotoxicity (% of Control),[10]; 5.0E−06 M,98 % of Control
same,Cytotoxicity (% of Control),[10]; 6.3E−07 M,99 % of Control
same,Log ECF,[11],0.32
same,Log ECF,[12],0.71
same,Log ECF,[13],1.88
same,Log ECF,[14],2.54
same,colony formation,[15],not as potent
same,cell cycle effect,[16],G2/M arrest
same,cell cycle effect,[17],G2/M cell cycle arrest
same,Positive Significance (− to +++),"[18]; 1.0E−04 M, TA98 +S9",−
same,Positive Significance (− to +++),"[18]; 1.0E−04 M, TA98 −S9",−
same,Positive Significance (− to +++),"[18]; 1.0E−05 M, TA98 +S9",−
same,Positive Significance (− to +++),"[18]; 1.0E−05 M, TA98 −S9",−
same,Positive Significance (− to +++),"[18]; 5.0E−05 M, TA98 +S9",−
same,Positive Significance (− to +++),"[18]; 5.0E−05 M, TA98 −S9",−
same,Positive Significance (− to +++),"[18]; 5.0E−06 M, TA98 +S9",−
same,Positive Significance (− to +++),"[18]; 5.0E−06 M, TA98 −S9",−
same,Positive Significance (− to +++),"[19]; 1.0E−04 M, TA100 +S9",−
same,Positive Significance (− to +++),"[19]; 1.0E−04 M, TA100 −S9",−
same,Positive Significance (− to +++),"[19]; 1.0E−05 M, TA100 +S9",−
same,Positive Significance (− to +++),"[19]; 1.0E−05 M, TA100 −S9",−
same,Positive Significance (− to +++),"[19]; 5.0E−05 M, TA100 +S9",−
same,Positive Significance (− to +++),"[19]; 5.0E−05 M, TA100 −S9",−
same,Positive Significance (− to +++),"[19]; 5.0E−06 M, TA100 +S9",−
same,Positive Significance (− to +++),"[19]; 5.0E−06 M, TA100 −S9",−
"CC(=O)OCC1=C(C)C[C@H]([C@@H](C)C2CC[C@H]3[C@@H]4C[C@H]5O[C@]56[C@@H](OC(C)=O)C=CC(=O)[C@]6(COC(C)=O)[C@H]4CC[C@]23C)OC1=O (some centres unmarked) [Compound X003, 4,19,27-triacetyl X001]",apoptosis by PARP cleavage and caspase 3 activation,[20],confirmed
same,stress and client protein response (western blot),[21],"induced oxidative and proteotoxic stress, while depleting hsf1 and client proteins of Hsp90"
same,heat shock-induced Hsp70 and Hsp40 protein levels,[22],failed to block
